Tests used:
[1] = system: transgenic Drosophila expressing honeybee CYP9Q2; test: Insecticide bioassay of transgenic Drosophila expressing CYP9Q2; assay type: in vivo, Drosophila melanogaster; settings: Act5C-GAL4 driven; ratio of LC50 values
Protocol: (§1) Fly lines were made homozygous for the transgene integrations. […] LC50 values were calculated as above.

[2] = system: transgenic Drosophila expressing honeybee CYP9Q3; test: Insecticide bioassay of transgenic Drosophila expressing CYP9Q3; assay type: in vivo, Drosophila melanogaster; settings: Act5C-GAL4 driven; ratio of LC50 values
Protocol: as §1

CYP9Q4 = CYP9Q4 (Bombus terrestris, UniProt A0A9B0BBT5); test: Metabolism by recombinant CYP9Q4/CPR microsomes, LC-MS/MS
Sequence of CYP9Q4 (Q07994 whole entry): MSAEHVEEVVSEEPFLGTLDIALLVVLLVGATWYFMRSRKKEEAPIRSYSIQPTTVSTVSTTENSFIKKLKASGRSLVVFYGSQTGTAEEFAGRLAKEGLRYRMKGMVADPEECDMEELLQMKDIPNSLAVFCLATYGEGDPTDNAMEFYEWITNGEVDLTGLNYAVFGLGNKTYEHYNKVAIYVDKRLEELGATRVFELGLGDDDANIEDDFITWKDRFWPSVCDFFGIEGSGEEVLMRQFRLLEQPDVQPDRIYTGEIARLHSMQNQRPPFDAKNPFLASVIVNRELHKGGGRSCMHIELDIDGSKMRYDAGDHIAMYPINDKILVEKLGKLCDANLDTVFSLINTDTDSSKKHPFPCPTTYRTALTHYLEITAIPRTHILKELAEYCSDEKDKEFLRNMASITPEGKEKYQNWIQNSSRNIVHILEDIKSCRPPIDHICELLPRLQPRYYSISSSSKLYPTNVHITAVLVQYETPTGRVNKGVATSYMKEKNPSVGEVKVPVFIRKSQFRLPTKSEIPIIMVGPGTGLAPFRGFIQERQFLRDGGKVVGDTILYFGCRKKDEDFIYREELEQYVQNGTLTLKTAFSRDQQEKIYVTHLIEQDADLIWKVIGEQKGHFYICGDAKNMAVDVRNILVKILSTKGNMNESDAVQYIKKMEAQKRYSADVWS
Sequence of CYP9Q4 (A0A9B0BBT5 entry or part of it): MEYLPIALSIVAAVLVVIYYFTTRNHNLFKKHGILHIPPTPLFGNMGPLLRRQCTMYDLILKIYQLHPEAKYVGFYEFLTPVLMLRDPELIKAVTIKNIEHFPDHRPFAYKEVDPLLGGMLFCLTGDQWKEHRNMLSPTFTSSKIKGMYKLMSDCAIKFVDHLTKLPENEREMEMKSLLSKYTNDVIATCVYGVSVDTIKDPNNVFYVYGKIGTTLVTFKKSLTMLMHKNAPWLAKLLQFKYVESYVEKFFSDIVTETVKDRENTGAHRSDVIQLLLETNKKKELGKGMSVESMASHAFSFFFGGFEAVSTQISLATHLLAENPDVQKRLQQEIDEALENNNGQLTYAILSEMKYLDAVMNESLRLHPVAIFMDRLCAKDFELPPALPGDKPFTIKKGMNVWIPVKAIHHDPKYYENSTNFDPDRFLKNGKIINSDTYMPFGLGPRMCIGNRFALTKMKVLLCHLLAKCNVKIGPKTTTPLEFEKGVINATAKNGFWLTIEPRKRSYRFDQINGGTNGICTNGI
Excerpt: (§2) All bee P450 (see Table S3 for accession numbers) and house fly NADPH-dependent cytochrome P450 reductase (CPR) (GenBank accession number Q07994) genes were obtained by gene synthesis (Geneart, CA, USA) and inserted into the pDEST8 expression vector (Invitrogen). Codon optimization of all bee genes was used to optimize expression in lepidopteran cell lines. The PFastbac1 vector with no inserted DNA was used to produce a control virus. The recombinant baculovirus DNA was constructed and transfected into Trichoplusia ni (High five cells, Thermo Fisher) using the Bac-to-Bac baculovirus expression system (Invitrogen) according to the manufacturer’s instructions. The titer of the recombinant virus was determined following protocols of the supplier. High Five cells grown to a density of 2 × 10^6 cells ml^-1 were co-infected with recombinant baculoviruses containing each bee P450 and CPR with a range of MOI (multiplicity of infection) ratios to identify the optimal conditions. Control cells were co-infected with the baculovirus containing vector with no insert (ctrl-virus) and the recombinant baculovirus expressing CPR using the same MOI ratios. Ferric citrate and δ-aminolevulinic acid hydrochloride were added to a final concentration of 0.1 mM at the time of infection and 24 h after infection to compensate the low levels of endogenous heme in the insect cells. After 48 h, cells were harvested, washed with PBS, and microsomes of the membrane fraction prepared according to standard procedures and stored at −80°C [31]. Briefly, pellets were homogenized for 30 s in 0.1M Na/K-phosphate buffer, pH 7.4 containing 1mM EDTA and DTT and 200mM sucrose using a Fastprep (MP Biomedicals), filtered through miracloth and centrifuging for 10 min at 680 g at 4°C. The supernatant was then centrifuged for 1 h at 100,000 g at 4°C, with the pellet subsequently resuspended in 0.1M Na/K-phosphate buffer, pH 7.6 containing 1mM EDTA and DTT and 10% glycerol using a Dounce tissue grinder. P450 expression and functionality was estimated by measuring CO-difference spectra in reduced samples using a Specord 200 Plus Spectrophotometer (Analytik Jena) and scanning from 500 nm to 400 nm. The protein content of samples was determined using Bradford reagent (Sigma) and bovine serum albumin (BSA) as a reference.
(§3) The total assay volume was 200 μL using three replicates for each data point. […] The assay was stopped by the addition of ice-cold acetonitrile (to 80% final concentration), centrifuged for 10 min at 3000 g and the supernatant subsequently analyzed by tandem mass spectrometry as described previously. […] Substrate turnover from two independent reactions were plotted versus controls and Michaelis-Menten kinetics determined using GraphPad Prism version 7 (GraphPad Software, CA, USA).

CYP9Q5 = test: Metabolism by recombinant CYP9Q5/CPR microsomes, LC-MS/MS
Excerpt: as §2, §3

[3] = apparent value, mean ± SD (n=3), decimal commas
[4] = hydroxylation (thiacloprid) or N-desmethylation (acetamiprid)

| SMILES | resistance compared to control flies without the transgene [1] | resistance compared to control flies without the transgene [2] | Km at 45 min (CYP9Q4; Bombus terrestris) [µM] | Vmax, thiacloprid hydroxylation (CYP9Q4; [3]) | metabolism by the recombinant P450 (in words) (CYP9Q4; [4]) | Km at 45 min (CYP9Q5; Bombus terrestris) [µM] | Vmax, thiacloprid hydroxylation (CYP9Q5; [3]) | metabolism by the recombinant P450 (in words) (CYP9Q5; [4]) |
| --- | --- | --- | --- | --- | --- | --- | --- | --- |
| O=[N+]([O-])NC1=NCCN1Cc1ccc(Cl)nc1 [imidacloprid] | no significant differences in sensitivity | no significant differences in sensitivity |  |  |  |  |  |  |
| N#C/N=C1\SCCN1Cc1ccc(Cl)nc1 [thiacloprid] |  |  | 11.8 | 18,94±0,64 pmol min-1 mg-1 | metabolize thiacloprid to its 5-hydroxy form | 30 | 4,29±0,71 pmol min-1 mg-1 | metabolize thiacloprid to its 5-hydroxy form |

Source: PMC5887109, “Unravelling the Molecular Determinants of Bee Sensitivity to Neonicotinoid Insecticides” (Current Biology, 2018)
